How the values were obtained:
acute toxicity in mice = conditions: mouse, in vivo
Description: (§1) As far as acute toxicity is concerned, the following data are obtained: […]

learning and memory [1] = assay: pole-climbing test as described by Cook and Weindley (learning and memory); type: in vivo; conditions: male rats, 100 mg/kg i.p.
learning and memory [2] = assay: learning and memory tests in laboratory animals (summary statement); type: in vivo
Experimental: (§2) The GPE administered i.p. to 20 male mice at the dose of 100 mg/kg subjected to the electroshock test as described by Esseman in Pharmacol. Res. comm.

[3] = acute toxicity in rabbits; conditions: rabbit, in vivo
Description: as §1

learning and memory [4] = assay: electroshock test as described by Esseman (learning and memory); type: in vivo; conditions: male mice, 100 mg/kg i.p.
Experimental: as §2

[5] = system: senile cerebral alteration, of both involutive and cerebro-vascular insufficiency origin; assay: clinical tests in the treatment of senile cerebral alteration (overall clinical evaluation); type: in vivo, man
Experimental: 20 patients (10 male and 10 female) 59 to 76 years old were treated; the overall clinical evaluation, taking into account the improvement of the neurophysiological and neurological exams carried out, of the psychometric tests and of the used neurological scale (De Renzi E., Nichelli P.: Verbal and non-verbal short-term memory impairment following hemispheric damage, Cortex, 11, 341-354, 1975; Bisiach E. et. al.: Neurologia Clinica, Ricerche di psicologia, Ed. F. Angeli, Milano, 1977; Cafarra P. et al.: Neuropsychological testing during a transient global amnesia episode and its follow-up, Acta Neurol. Scand.

acute toxicity in rats = conditions: rat, in vivo
Description: as §1

[6] = oral route, read-out: oral dose that did not cause either death or any symptomatology
[7] = case 1, cerebral vasculopathy with mental decline
[8] = overall clinical evaluation, 20 patients, 59 to 76 years old

For NCCOP(=O)(O)OC[C@H](O)CO [GPE, L-α-glycerylphosphorylethanolamine], the LD50 (acute toxicity in mice; im, intramuscular route) was > 1500 mg/kg, the NOAEL (acute toxicity in mice; [6]) was ≥ 3000 mg/kg and the “ability to activate learning and memory in comparison to the untreated animals” value (learning and memory [1]) was “significantly shown the ability to activate learning and memory”. For the same compound, the “response to the learning and memory tests” value (learning and memory [2]) was “significantly improve the response to the learning and memory tests”, the LD50 ([3]; im, intramuscular route) was > 1000 mg/kg and the NOAEL [3, 6] was ≥ 3000 mg/kg. The “ability to activate learning and memory in comparison to the untreated animals” value (learning and memory [4]) was “significantly shown the ability to activate learning and memory”, the “tolerability (overall)” value ([5]; 20 patients, 59 to 76 years old) was “always excellent” and the “Evaluation: Activity” value [5, 7] was “good”. The “Evaluation: Tolerability” value [5, 7] was “very good”, the “Evaluation: Activity” value ([5]; case 2, mental decline in cerebral vasculopathic) was “insufficient” and the “Evaluation: Activity” value ([5]; case 3, cerebral vasculopathy with mental decline) was “very good”. The “Evaluation: Activity” value ([5]; case 4, mental involution with serious cerebral atrophy) was “very good”, the “Evaluation: Activity” value ([5]; case 5, Alzheimer disease) was “moderate” and the “Evaluation: Activity” value ([5]; case 6, cerebral atrophy with extrapiramidal syndrome and decline) was “moderate”. The “Evaluation: Activity” value ([5]; case 8, multifocal dementia) was “good”, the “Evaluation: Activity” value ([5]; case 9, presenile Alzheimer disease) was “good” and the “Evaluation: Activity” value ([5]; case 10, multifocal dementia with incipient cerebral) was “very good”. The “Evaluation: Activity” value ([5]; case 11, cerebral vasculopathy with mental decline) was “very good”, the “Evaluation: Activity” value ([5]; case 12, Alzheimer disease with cerebral atrophy) was “good” and the “Evaluation: Activity” value ([5]; case 13, cerebral vasculopathy with mental decline) was “good”. The “Evaluation: Activity” value ([5]; case 14, vasculopathy prevailing in the vertebro-basilar) was “moderate”, the “Evaluation: Activity” value ([5]; case 15, cerebral vasculopathy with mental decline) was “moderate” and the “Evaluation: Activity” value ([5]; case 16, Alzheimer disease) was “good”. For the same compound, the “Evaluation: Activity” value ([5]; case 17, Alzheimer disease with initial cerebral atrophy) was “very good”, the “Evaluation: Activity” value ([5]; case 18, Alzheimer disease) was “very good” and the “Evaluation: Activity” value ([5]; case 19, cerebral vasculopathy with cerebral atrophy) was “good”. The “Evaluation: Activity” value ([5]; case 20, multifocal dementia) was “good”, the “influence on neurophysiological parameters, psychometric tests and neurologic scales” value ([5]; man) was “ability to influence in a likewise significant way the neurophysiological parameters, the psychometric tests and the used neurologic scales” and the “cases with significantly positive therapeutic effect” value [5, 8] was 19 cases. The “treatments considered to be insufficient” value [5, 8] was “only one”, the “pharmacological activity in clinical tests” value ([5]; senile cerebral alteration and related symptomatology) was “confirmed in clinical tests” and the LD50 (acute toxicity in rats; im, intramuscular route) was > 1500 mg/kg. The NOAEL (acute toxicity in rats; [6]) was ≥ 3000 mg/kg.

Source: patent US4918062A, “Pharmaceutical compositions for the treatment of cerebral psycho-organic syndromes” (Riace Establishment, priority 1987, dated 1990)
